Like-named read-outs stand apart in the source and are kept apart here.
Tests used:
Format in all cases: in vivo
Abutilon theophrasti = test: Greenhouse post-emergence herbicidal activity, ABUTH; details: ABUTH
Text: (§1) The culture containers used were plastic flowerpots containing loamy sand with approximately 3.0% of humus as the substrate. The seeds of the test plants were sown separately for each species.
(§2) For the post-emergence treatment, the test plants were first grown to a height of 3 to 15 cm, depending on the plant habit, and only then treated with the active ingredients which had been suspended or emulsified in water. For this purpose, the test plants were either sown directly and grown in the same containers, or they were first grown separately as seedlings and transplanted into the test containers a few days prior to treatment.
(§3) Depending on the species, the plants were kept at 10-25° C. or 20-35° C., respectively.
(§4) The test period extended over 2 to 4 weeks. During this time, the plants were tended, and their response to the individual treatments was evaluated.
(§5) Evaluation was carried out using a scale from 0 to 100. 100 means no emergence of the plants, or complete destruction of at least the aerial moieties, and 0 means no damage, or normal course of growth. A good herbicidal activity is given at values of at least 70 and a very good herbicidal activity is given at values of at least 85.

Amaranthus retroflexus = test: Greenhouse post-emergence herbicidal activity, AMARE; details: AMARE; for pest or weed control at 31 g/ha: 0.031 kg/ha
Text: as §1, §2, §3, §4, §5

Chenopodium album = test: Greenhouse post-emergence herbicidal activity, CHEAL
Text: as §1, §2, §3, §4, §5

Echinocloa crus-galli = test: Greenhouse post-emergence herbicidal activity, ECHCG; details: Echinochloa crus-galli, ECHCG
Text: as §1, §2, §3, §4, §5

Oryza sativa = test: Greenhouse post-emergence herbicidal activity on crop ORYSA (rice)
Text: as §1, §2, §3, §4, §5

Zea mays = test: Greenhouse post-emergence herbicidal activity on crop ZEAMX (corn, maize); parameters: key: 0 = no damage/normal growth, 100 = no emergence or complete destruction
Text: as §1, §2, §3, §4, §5

Kochia scoparia = test: Greenhouse post-emergence herbicidal activity, KCHSC; details: scale 0 to 100
Text: as §1, §2, §3, §4, §5

Ambrosia artemisiifolia = test: Greenhouse post-emergence herbicidal activity, AMBEL; details: scale 0 to 100
Text: as §1, §2, §3, §4, §5

Cirsium arvense = test: Greenhouse post-emergence herbicidal activity, CIRAR; details: CIRAR, 0.125 kg/ha, scale 0 to 100
Text: as §1, §2, §3, §4, §5

[1] = 2 kg/ha, scale 0 to 100, read-out: Herbicidal activity
[2] = ORYSA (rice, crop), 0.031 kg/ha, scale 0 to 100
[3] = ORYSA (rice, crop), 0.063 kg/ha, scale 0 to 100
[4] = application rate 2 kg/ha, read-out: Herbicidal activity

CCN(c1c(Cl)ccc(C2=C(O)c3ncccc3CS2(=O)=O)c1Cl)S(C)(=O)=O [I-8, N-[2,6-dichloro-3-(8-hydroxy-6,6-dioxo-5H-thiopyrano[4,3-b]pyridin-7-yl)phenyl]-N-ethyl-methanesulfonamide]
pest or weed control at 2000 g/ha (Abutilon theophrasti; [1]): 100%
pest or weed control at 31 g/ha (Amaranthus retroflexus; scale 0 to 100): 100%
pest or weed control at 63 g/ha (Amaranthus retroflexus; 0.063 kg/ha, scale 0 to 100): 90%
pest or weed control at 2000 g/ha (Amaranthus retroflexus; [1]): 100%
pest or weed control at 31 g/ha (Chenopodium album; 0.031 kg/ha, scale 0 to 100): 100%
pest or weed control at 63 g/ha (Chenopodium album; 0.063 kg/ha, scale 0 to 100): 100%
pest or weed control at 125 g/ha (Chenopodium album; 0.125 kg/ha, scale 0 to 100): 100%
pest or weed control at 31 g/ha (Echinocloa crus-galli; 0.031 kg/ha, scale 0 to 100): 90%
pest or weed control at 63 g/ha (Echinocloa crus-galli; 0.063 kg/ha, scale 0 to 100): 95%
pest or weed control at 125 g/ha (Echinocloa crus-galli; 0.125 kg/ha, scale 0 to 100): 95%
pest or weed control at 2000 g/ha (Echinocloa crus-galli; [1]): 100%
Herbicidal activity (Oryza sativa; [2]): 0
Herbicidal activity (Oryza sativa; [3]): 25
Herbicidal activity (Zea mays; ZEAMX (corn, crop), 0.031 kg/ha, scale 0 to 100): 0
Herbicidal activity (Zea mays; ZEAMX (corn, crop), 0.063 kg/ha, scale 0 to 100): 0

Cc1c(C2=C(OC(=O)C(C)(C)C)c3ncccc3C(C)(C)S2(=O)=O)cccc1N(C)S(C)(=O)=O [I-13, [5,5-dimethyl-7-[2-methyl-3-[methyl(methylsulfonyl)amino]phenyl]-6,6-dioxo-thiopyrano[4,3-b]pyridin-8-yl] 2,2-dimethylpropanoate]
pest or weed control at 2000 g/ha (Amaranthus retroflexus; [1]): 100%
pest or weed control at 2000 g/ha (Echinocloa crus-galli; [1]): 75%
Herbicidal activity (Kochia scoparia; 0.125 kg/ha): 90
Herbicidal activity (Oryza sativa; ORYSA (rice, crop), 0.125 kg/ha, scale 0 to 100): 0
Herbicidal activity (Zea mays; ZEAMX (corn, crop), 0.125 kg/ha, scale 0 to 100): 0

CN(c1c(Cl)ccc(C2=C(OC(=O)C(C)(C)C)c3ncccc3C(C)(C)S2(=O)=O)c1Cl)S(C)(=O)=O [I-30]
pest or weed control at 2000 g/ha (Abutilon theophrasti; [4]): 100%
pest or weed control at 2000 g/ha (Amaranthus retroflexus; [4]): 100%
pest or weed control at 2000 g/ha (Echinocloa crus-galli; [4]): 100%

CN(c1cccc(C2=C(O)c3ncccc3C(C)(C)S2(=O)=O)c1Cl)S(C)(=O)=O [I-17, N-[2-chloro-3-(8-hydroxy-5,5-dimethyl-6,6-dioxo-thiopyrano[4,3-b]pyridin-7-yl)phenyl]-N-methyl-methanesulfonamide]
pest or weed control at 2000 g/ha (Abutilon theophrasti; [1]): 100%
pest or weed control at 31 g/ha (Amaranthus retroflexus; scale 0 to 100): 98%
pest or weed control at 63 g/ha (Amaranthus retroflexus; 0.063 kg/ha, scale 0 to 100): 100%
pest or weed control at 125 g/ha (Amaranthus retroflexus; 0.125 kg/ha, scale 0 to 100): 100%
pest or weed control at 2000 g/ha (Amaranthus retroflexus; [1]): 100%
Herbicidal activity (Ambrosia artemisiifolia; 0.063 kg/ha): 100
Herbicidal activity (Ambrosia artemisiifolia; 0.125 kg/ha): 100
pest or weed control at 31 g/ha (Chenopodium album; 0.031 kg/ha, scale 0 to 100): 100%
pest or weed control at 63 g/ha (Chenopodium album; 0.063 kg/ha, scale 0 to 100): 100%
pest or weed control at 125 g/ha (Chenopodium album; 0.125 kg/ha, scale 0 to 100): 100%
pest or weed control at 31 g/ha (Echinocloa crus-galli; 0.031 kg/ha, scale 0 to 100): 95%
pest or weed control at 2000 g/ha (Echinocloa crus-galli; [1]): 100%
Herbicidal activity (Oryza sativa; [3]): 10

CC1(C)c2cccnc2C(O)=C(c2c(Cl)ccc(NS(C)(=O)=O)c2Cl)S1(=O)=O [I-6, N-[2,4-dichloro-3-(8-hydroxy-5,5-dimethyl-6,6-dioxo-thiopyrano[4,3-b]pyridin-7-yl)phenyl]methanesulfonamide]
pest or weed control at 2000 g/ha (Abutilon theophrasti; [1]): 100%
pest or weed control at 31 g/ha (Amaranthus retroflexus; scale 0 to 100): 85%
pest or weed control at 63 g/ha (Amaranthus retroflexus; 0.063 kg/ha, scale 0 to 100): 95%
pest or weed control at 125 g/ha (Amaranthus retroflexus; 0.125 kg/ha, scale 0 to 100): 98%
pest or weed control at 2000 g/ha (Amaranthus retroflexus; [1]): 100%
pest or weed control at 31 g/ha (Chenopodium album; 0.031 kg/ha, scale 0 to 100): 95%
pest or weed control at 63 g/ha (Chenopodium album; 0.063 kg/ha, scale 0 to 100): 98%
pest or weed control at 125 g/ha (Chenopodium album; 0.125 kg/ha, scale 0 to 100): 98%
pest or weed control at 125 g/ha (Cirsium arvense): 100%
pest or weed control at 2000 g/ha (Echinocloa crus-galli; [1]): 100%
Herbicidal activity (Kochia scoparia; 0.031 kg/ha): 90
Herbicidal activity (Kochia scoparia; 0.063 kg/ha): 98
Herbicidal activity (Oryza sativa; [2]): 0
Herbicidal activity (Oryza sativa; [3]): 40

CN(c1cccc(C2=C(O)c3ncccc3CS2(=O)=O)c1C(F)(F)F)S(C)(=O)=O [I-35, N-[3-(8-hydroxy-6,6-dioxo-5H-thiopyrano[4,3-b]pyridin-7-yl)-2-(trifluoromethyl)phenyl]-N-methyl-methanesulfonamide]
pest or weed control at 63 g/ha (Amaranthus retroflexus; application rate 0.063 kg/ha): 75%
pest or weed control at 125 g/ha (Amaranthus retroflexus; application rate 0.125 kg/ha): 100%
pest or weed control at 31 g/ha (Chenopodium album; application rate 0.031 kg/ha): 95%
pest or weed control at 63 g/ha (Chenopodium album; application rate 0.063 kg/ha): 100%
pest or weed control at 125 g/ha (Chenopodium album; application rate 0.125 kg/ha): 100%
pest or weed control at 31 g/ha (Echinocloa crus-galli; application rate 0.031 kg/ha): 80%
pest or weed control at 63 g/ha (Echinocloa crus-galli; application rate 0.063 kg/ha): 90%
pest or weed control at 125 g/ha (Echinocloa crus-galli; application rate 0.125 kg/ha): 90%
Herbicidal activity (Oryza sativa; crop ORYSA (rice), application rate 0.031 kg/ha): 0
Herbicidal activity (Oryza sativa; crop ORYSA (rice), application rate 0.063 kg/ha): 15
Herbicidal activity (Oryza sativa; crop ORYSA (rice), application rate 0.125 kg/ha): 25
Herbicidal activity (Zea mays; crop ZEAMX (corn, maize), application rate 0.031 kg/ha): 0
Herbicidal activity (Zea mays; crop ZEAMX (corn, maize), application rate 0.063 kg/ha): 0
Herbicidal activity (Zea mays; crop ZEAMX (corn, maize), application rate 0.125 kg/ha): 0
